From PubChem BioAssay (NCI)
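Five concentrations, 48 hours, 96-well plates. GI50 is the concentration that inhibits growth by half. Definition used: TGI = concentration required for complete inhibition of growth.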

How the values were obtained:
Assay in all cases: NCI tumour cell line growth inhibition, 48 h
A549 NSCLC = system: A549 NSCLC
ACHN renal = system: ACHN renal
CAKI-1 renal = system: CAKI-1 renal
M14 melanoma = system: M14 melanoma
NCI-H460 lung = system: NCI-H460 lung
OVCAR-5 ovarian = system: OVCAR-5 ovarian
SK-MEL-28 melanoma = system: SK-MEL-28 melanoma
SK-OV-3 ovarian = system: SK-OV-3 ovarian
SW-620 colon = system: SW-620 colon
RPMI-8226 leukemia = system: RPMI-8226 leukemia

Structure (SMILES) | TGI (A549 NSCLC) | TGI (ACHN renal) | TGI (CAKI-1 renal) | TGI (M14 melanoma) | TGI (NCI-H460 lung) | TGI (OVCAR-5 ovarian) | TGI (SK-MEL-28 melanoma) | TGI (SK-OV-3 ovarian) | TGI (SW-620 colon) | GI50 (A549 NSCLC) | GI50 (ACHN renal) | GI50 (CAKI-1 renal) | GI50 (M14 melanoma) | GI50 (NCI-H460 lung) | GI50 (OVCAR-5 ovarian) | GI50 (RPMI-8226 leukemia) | TGI (RPMI-8226 leukemia) | GI50 (SK-MEL-28 melanoma) | GI50 (SK-OV-3 ovarian) | GI50 (SW-620 colon)
COc1ccc(C(=O)C(CC2C(=O)CC(C)(C)C(C(=O)C(=O)Nc3c(C)cccc3C)C2=O)c2ccc(OC)cc2)cc1 (stereo unspecified) | > 100 µM | > 100 µM | > 100 µM | > 100 µM | > 100 µM | > 100 µM | > 100 µM | > 100 µM | > 100 µM | – | – | – | – | – | – | – | – | – | – | –
CCC[CH2][Ge]([CH2]CCC)([CH2]CCC)[O]C(=O)C(OC(C)=O)c1ccccc1 (stereo unspecified) | 30.9 µM | 19.8 µM | 47.4 µM | 6.57 µM | 20 µM | 17.5 µM | 22.1 µM | 55.5 µM | 20.6 µM | 3.37 µM | 2.76 µM | 13.7 µM | 1.05 µM | 1.24 µM | 3.36 µM | 0.297 µM | 4.82 µM | 8.12 µM | 12.4 µM | 4.59 µM
Cc1cccc2c1ccc1c3occ(C)c3c(=O)oc21 | > 100 µM | > 100 µM | > 100 µM | > 100 µM | > 100 µM | > 100 µM | > 100 µM | > 100 µM | > 100 µM | > 100 µM | > 100 µM | > 100 µM | > 100 µM | 93.1 µM | > 100 µM | > 100 µM | > 100 µM | > 100 µM | > 100 µM | > 100 µM
COc1ccc(OC)c(-c2cc(C(=O)O)c3cc4ccccc4cc3n2)c1 | > 100 µM | > 100 µM | > 100 µM | > 100 µM | > 100 µM | > 100 µM | > 100 µM | > 100 µM | > 100 µM | – | – | – | – | – | – | – | > 100 µM | – | – | –
O=[N+]([O-])c1cc([N+](=O)[O-])c(C(Cl)C(Cl)c2ccccc2)cc1C(Cl)C(Cl)c1ccccc1 (stereo unspecified) | 4.51 µM | 3.55 µM | 3.25 µM | 2.93 µM | – | 4.43 µM | 3.95 µM | 80.1 µM | 3.46 µM | – | – | – | – | – | – | – | 8.38 µM | – | – | –
COc1cc(CCNc2nc3cc(N)cc(N)c3nc2-c2ccccc2)cc(OC)c1 | 14.9 µM | 3.27 µM | 3.6 µM | 4.05 µM | 10.9 µM | 3.69 µM | 3.31 µM | 13 µM | 4.71 µM | 3.64 µM | 1.8 µM | 1.93 µM | 2 µM | 3.25 µM | 1.83 µM | – | – | 1.63 µM | 3.56 µM | 2.28 µM
C/C=C/C=C\C(=O)C1c2cccc(O)c2C(=O)c2c(O)cc(C)cc21 (stereo unspecified) | 2.13 µM | 2.66 µM | 4.34 µM | – | 1.47 µM | 3.33 µM | 3.51 µM | 3.08 µM | 2.55 µM | – | – | – | – | – | – | – | 7.26 µM | – | – | –
C[CH2][Sn]([Cl])([CH2]C)[CH2]C | 5.04 µM | 8.27 µM | – | 5.46 µM | 5.44 µM | 8.33 µM | 11.6 µM | 5.8 µM | 10.9 µM | 1.18 µM | 1.46 µM | – | 1.27 µM | 1.67 µM | 3.33 µM | 0.399 µM | 9.17 µM | 1.67 µM | 1.47 µM | 0.57 µM
Cc1cn2c(/C=N/N=C(N)N)c(-c3cc(Cl)sc3Cl)nc2s1 | – | 1.63 µM | 26 µM | 1.56 µM | > 50 µM | 1.59 µM | – | 2.78 µM | – | – | 0.908 µM | 6.18 µM | 0.874 µM | 1.74 µM | 0.886 µM | 0.792 µM | 1.73 µM | – | 1.15 µM | –
CNC(=O)OCc1cc2ccncc2c2c1[nH]c1ccccc12 | > 100 µM | > 100 µM | > 100 µM | > 100 µM | > 100 µM | > 100 µM | > 100 µM | – | > 100 µM | – | – | – | – | – | – | – | > 100 µM | – | – | –
CCOC(=O)NN(C(=O)OCC)C(C(=O)c1ccc(Cl)cc1)=C1NCCN1 | > 100 µM | > 100 µM | > 100 µM | > 100 µM | > 100 µM | > 100 µM | > 100 µM | > 100 µM | > 100 µM | – | – | – | – | – | – | – | – | – | – | –
COc1cc(C2C(C(=O)OCc3ccccc3)=C(C)NC(C)=C2C(=O)OCc2ccccc2)cc(OC)c1OC | > 100 µM | > 100 µM | > 100 µM | – | > 100 µM | – | – | > 100 µM | – | 3.6 µM | 2.79 µM | 3.05 µM | – | 3.54 µM | – | 2.09 µM | > 100 µM | – | 4.78 µM | –
CCc1cccc(CC)c1NC(=O)c1ccn2c1CCc1cnc(Nc3ccc(N4CCN(C)CC4)cc3OC)nc1-2 | 42 µM | 12.4 µM | – | 3.62 µM | 10.7 µM | 22 µM | 3.55 µM | 23.4 µM | 5.94 µM | 2.17 µM | 2.31 µM | – | 1.59 µM | 0.0814 µM | 3.51 µM | 1.92 µM | 6.58 µM | 1.76 µM | 11.3 µM | 1.11 µM
[O]=[W](=[O])([OH])[OH] | > 100 µM | > 100 µM | > 100 µM | > 100 µM | > 100 µM | > 100 µM | > 100 µM | – | > 100 µM | > 100 µM | > 100 µM | > 100 µM | > 100 µM | > 100 µM | > 100 µM | > 100 µM | > 100 µM | > 100 µM | – | > 100 µM
CCCN(CCC)c1ccc(/C=N/NC(=O)c2cccnc2)cc1 | > 100 µM | > 100 µM | > 100 µM | – | > 100 µM | > 100 µM | > 100 µM | > 100 µM | > 100 µM | 27.5 µM | 39.5 µM | 30.1 µM | – | 30.3 µM | 38 µM | 80.5 µM | > 100 µM | 33.6 µM | 30.6 µM | 18.1 µM
